Experimental data taken from patent US20200079758A1, “[4-(PHENYLSULFONYL)PIPERAZIN-1-YL](1H-1,2,3-TRIAZOL-4-YL)METHANONES” (priority 2016, published 2020).
Each block holds one compound with its values, some of them ahead of it.

Biological target: T1, recombinant human AKR1C3 (Homo sapiens, UniProt P42330)
T1 construct: GST (cleaved yes); made in house; host or cells: E. coli
T1 sequence (P42330 1-323): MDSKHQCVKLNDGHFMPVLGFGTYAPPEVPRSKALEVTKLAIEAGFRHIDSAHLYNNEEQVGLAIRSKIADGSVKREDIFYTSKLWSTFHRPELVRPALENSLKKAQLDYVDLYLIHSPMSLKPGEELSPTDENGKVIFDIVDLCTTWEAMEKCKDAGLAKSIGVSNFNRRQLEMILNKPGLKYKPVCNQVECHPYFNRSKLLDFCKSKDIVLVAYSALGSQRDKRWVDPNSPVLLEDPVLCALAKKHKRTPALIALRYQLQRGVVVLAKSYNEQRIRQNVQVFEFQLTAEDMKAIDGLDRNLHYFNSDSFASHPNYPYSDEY
Assay: AKR1C3-inhibitory activity assay (generation of Coumberol from Coumberone)
Assay type: biochemical
Details: Coumberone 0.3 μM, NADPH 10 μM, 22° C., typically 90 min, average or median values
Summary of the method: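 Recombinant human AKR1C3 (E. coli GST fusion, GST removed; ~1 nM) preincubated 15 min with compound, then NADPH 10 μM and Coumberone 0.3 μM (final), 22 °C, typically 90 min, in 50 mM K-phosphate pH 7. Stopped with EM-1404 (1 μM final); Coumberol fluorescence read at 520 nm (ex 380 nm), normalized to no-inhibitor and no-enzyme controls.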

Compound: C[C@@H]1CN(C(=O)c2cnn[nH]2)[C@@H](C)CN1S(=O)(=O)c1cccc2ccccc12 [Example 65, [(2S,5R)-2,5-dimethyl-4-(naphthalen-1-ylsulfonyl)piperazin-1-yl](1H-1,2,3-triazol-5-yl)methanone]
- IC50: 2 nM

Compound: C[C@@H]1CN(C(=O)c2cnn[nH]2)[C@@H](C)CN1S(=O)(=O)Cc1ccccc1 [Example 64, [(2S,5R)-4-(benzylsulfonyl)-2,5-dimethylpiperazin-1-yl](1H-1,2,3-triazol-5-yl)methanone]
- IC50: 114 nM

Compound: CC1(C)CN(C(=O)c2c[nH]nn2)CCN1S(=O)(=O)c1cccc(C(F)(F)F)c1 [Example 28, (3,3-dimethyl-4-{[3-(trifluoromethyl)phenyl]sulfonyl}piperazin-1-yl)(1H-1,2,3-triazol-4-yl)methanone]
- IC50: 3 nM

Compound: C[C@@H]1CN(C(=O)c2cnn[nH]2)C[C@H](C)N1S(=O)(=O)c1cccc(Cl)c1 [Example 39, {(3R,5S)-4-[(3-chlorophenyl)sulfonyl]-3,5-dimethylpiperazin-1-yl}(1H-1,2,3-triazol-5-yl)methanone]
- IC50: 3 nM

Compound: CC1(C)CN(C(=O)c2cnn[nH]2)CCN1S(=O)(=O)c1c(F)cccc1F [Example 35, {4-[(2,6-difluorophenyl)sulfonyl]-3,3-dimethylpiperazin-1-yl}(1H-1,2,3-triazol-5-yl)methanone]
- IC50: 46 nM

Compound: CC1(C)CN(C(=O)c2c[nH]nn2)CCN1S(=O)(=O)c1cc(F)cc(F)c1 [Example 29, {4-[(3,5-difluorophenyl)sulfonyl]-3,3-dimethylpiperazin-1-yl}(1H-1,2,3-triazol-4-yl)methanone]
- IC50: 11 nM

Compound: CC1(C)CN(C(=O)c2cnn[nH]2)CCN1S(=O)(=O)c1ccc(F)c(F)c1F [Example 126, {3,3-dimethyl-4-[(2,3,4-trifluorophenyl)sulfonyl]piperazin-1-yl}(1H-1,2,3-triazol-5-yl)methanone]
- IC50: 46 nM

Compound: CC(=O)Nc1cccc(S(=O)(=O)N2C[C@H](C)N(C(=O)c3cnn[nH]3)C[C@H]2C)c1 [Example 80, N-(3-{[(2R,5S)-2,5-dimethyl-4-(1H-1,2,3-triazol-5-ylcarbonyl)piperazin-1-yl]sulfonyl}phenyl)acetamide]
- IC50: 104 nM

Compound: COc1ccccc1S(=O)(=O)N1C[C@H](C)N(C(=O)c2cnn[nH]2)C[C@H]1C [Example 16, {(2S,5R)-4-[(2-methoxyphenyl)sulfonyl]-2,5-dimethylpiperazin-1-yl}(1H-1,2,3-triazol-5-yl)methanone]
- IC50: 4 nM

Compound: Cc1cccc(Cl)c1S(=O)(=O)N1CCN(C(=O)c2cnn[nH]2)CC1(C)C [Example 117, {4-[(2-chloro-6-methylphenyl)sulfonyl]-3,3-dimethylpiperazin-1-yl}(1H-1,2,3-triazol-5-yl)methanone]
- IC50: 4 nM

Compound: CC1(C)CN(C(=O)c2c[nH]nn2)CCN1S(=O)(=O)c1cc(Cl)cc(Cl)c1 [Example 26, {4-[(3,5-dichlorophenyl)sulfonyl]-3,3-dimethylpiperazin-1-yl}(1H-1,2,3-triazol-4-yl)methanone]
- IC50: 4 nM

More lines, in order of falling IC50, values ahead:

- IC50: 439 nM
Compound: C[C@@H]1CN(S(=O)(=O)c2ccccc2C#N)[C@@H](C)CN1C(=O)c1cnn[nH]1 (stereo in doubt) [Example 14, 2-{[(2S,5R)-2,5-dimethyl-4-(1H-1,2,3-triazol-5-ylcarbonyl)piperazin-1-yl]sulfonyl}benzonitrile]

- IC50: 285 nM
Compound: COc1ccc(C#N)cc1S(=O)(=O)N1CCN(C(=O)c2cnn[nH]2)CC1(C)C [Example 139, 3-{[2,2-dimethyl-4-(1H-1,2,3-triazol-5-ylcarbonyl)piperazin-1-yl]sulfonyl}-4-methoxybenzonitrile]

- IC50: 151 nM
Compound: COc1ccc(S(=O)(=O)N2C[C@@H](C)N(C(=O)c3cnn[nH]3)[C@@H](C)C2)cc1 [Example 97, {(2R,6S)-4-[(4-methoxyphenyl)sulfonyl]-2,6-dimethylpiperazin-1-yl}(1H-1,2,3-triazol-5-yl)methanone]

- IC50: 35 nM
Compound: CC1(C)CN(C(=O)c2cnn[nH]2)CCN1S(=O)(=O)c1cccc2nonc12 [Example 122, [4-(2,1,3-benzoxadiazol-4-ylsulfonyl)-3,3-dimethylpiperazin-1-yl](1H-1,2,3-triazol-5-yl)methanone]

- IC50: 30 nM
Compound: C[C@@H]1CN(S(=O)(=O)c2ccc(Br)cc2)C[C@H](C)N1C(=O)c1cnn[nH]1 [Example 93, {(2R,6S)-4-[(4-bromophenyl)sulfonyl]-2,6-dimethylpiperazin-1-yl}(1H-1,2,3-triazol-5-yl)methanone]

- IC50: 26 nM
Compound: CC1(C)CN(C(=O)c2cnn[nH]2)CCN1S(=O)(=O)c1ccc(F)c(F)c1 [Example 36, {4-[(3,4-difluorophenyl)sulfonyl]-3,3-dimethylpiperazin-1-yl}(1H-1,2,3-triazol-5-yl)methanone]

- IC50: 11 nM
Compound: CC1(C)CN(C(=O)c2c[nH]nn2)CCN1S(=O)(=O)c1cccc(F)c1 [Example 20, {4-[(3-fluorophenyl)sulfonyl]-3,3-dimethylpiperazin-1-yl}(1H-1,2,3-triazol-4-yl)methanone]

- IC50: 10 nM
Compound: Cc1cccc(S(=O)(=O)N2CCN(C(=O)c3cnn[nH]3)CC2(C)C)c1 [Example 33, {3,3-dimethyl-4-[(3-methylphenyl)sulfonyl]piperazin-1-yl}(1H-1,2,3-triazol-5-yl)methanone]

- IC50: 8 nM
Compound: CC1(C)CN(C(=O)c2cnn[nH]2)CCN1S(=O)(=O)c1cc(F)ccc1F [Example 37, {4-[(2,5-difluorophenyl)sulfonyl]-3,3-dimethylpiperazin-1-yl}(1H-1,2,3-triazol-5-yl)methanone]

- IC50: 7 nM
Compound: COc1ccc(S(=O)(=O)N2C[C@H](C)N(C(=O)c3cnn[nH]3)C[C@H]2C)cc1 [Example 67, {(2S,5R)-4-[(4-methoxyphenyl)sulfonyl]-2,5-dimethylpiperazin-1-yl}(1H-1,2,3-triazol-5-yl)methanone]

- IC50: 5 nM
Compound: CC1(C)CN(C(=O)c2cnn[nH]2)CCN1S(=O)(=O)c1cc(F)ccc1Cl [Example 136, {4-[(2-chloro-5-fluorophenyl)sulfonyl]-3,3-dimethylpiperazin-1-yl}(1H-1,2,3-triazol-5-yl)methanone]

- IC50: 3 nM
Compound: Cc1ccc(C)c(S(=O)(=O)N2C[C@@H](C)N(C(=O)c3cnn[nH]3)[C@@H](C)C2)c1 [Example 99, {(2R,6S)-4-[(2,5-dimethylphenyl)sulfonyl]-2,6-dimethylpiperazin-1-yl}(1H-1,2,3-triazol-5-yl)methanone]

- IC50: 2 nM
Compound: C[C@@H]1CN(S(=O)(=O)c2cc(Cl)ccc2Cl)C[C@H](C)N1C(=O)c1c[nH]nn1 [Example 43, {(2R,6S)-4-[(2,5-dichlorophenyl)sulfonyl]-2,6-dimethylpiperazin-1-yl}(1H-1,2,3-triazol-4-yl)methanone]

- IC50: 2 nM
Compound: C[C@@H]1CN(C(=O)c2cnn[nH]2)[C@@H](C)CN1S(=O)(=O)c1cccc(OC(F)(F)F)c1 [Example 85, [(2S,5R)-2,5-dimethyl-4-{[3-(trifluoromethoxy)phenyl]sulfonyl}piperazin-1-yl](1H-1,2,3-triazol-5-yl)methanone]

- IC50: 1 nM
Compound: C[C@@H]1CN(C(=O)c2c[nH]nn2)[C@@H](C)CN1S(=O)(=O)c1cccc(S(F)(F)(F)(F)F)c1 [Example 8, [(2S,5R)-2,5-dimethyl-4-{[3-(pentafluoro-λ^6-sulfanyl)phenyl]sulfonyl}piperazin-1-yl](1H-1,2,3-triazol-4-yl)methanone]
